From patent publication US20250374926A1, “NOVEL DERIVATIVES OF NON-CODED AMINO ACIDS AND THEIR USE IN CROP PROTECTION” (FORTEPHEST LTD., priority 2022, published 2025)

Tests used:
Format in all cases: in vivo
Lettuce seeds = experiment: Filter paper bioassay on germination and early development of Lettuce seeds; details: lowest concentration causing malformation of radicle or shoots, visually assessed six days after beginning, 0 to 1 mmol/l; for minimal effective concentration: 144 h, read-out: MEC, score (Minimal Effective Concentration, activity score) (converted)
Description: Materials: Seeds of Lettuce R. (Super-Jericho, non-sterilized) were obtained from Ben Shahar Moshe Ltd., 99% purity. The test compounds listed in Table 3 below were synthesized de novo or purchased from different vendors. Bioassays: Filter Paper Bioassays with Lettuce seeds were performed following Bertin et al. 2009 with modifications as described below. Seeds were placed on Whatman no. 1 filter paper (Whatman, Middlesex, U.K.) in Petri dishes (10 seeds per plate) with 2.0 ml of an aqueous solution of test material in a concentration ranging from 0 (control) to 1 mmol/l. The Petri dishes were arranged in a tray tilted at a 45-degree angle and were kept in the dark for 48 hours. Then trays with plates were transferred to the growth chamber with a 6/18 dark/light cycle for four days. Each experiment was performed in at least two repeats.
The development of plants' radicles and shoots was visually assessed six days after the beginning of the test to determine the Minimal Effective Concentration (MEC) of a test material. In the context of the invention, MEC is defined as the lowest concentration level of a test material that caused deviation (malformation of radicle or shoots).

Malva = experiment: Post-emergence herbicidal effect on potted weeds; details: 2-3 true leaves, up to 5 mg/pot, scale 0 (dead plants) to 5 (healthy, as control)
Description: (§1) Weed seeds were sawn in 0.3-liter pots containing medium-heavy clay-loam soil from organic fields (55% clay, 23% silt, 20% sand, 2% organic matter, pH 7.1). The experiment was conducted in a completely randomized design. Each treatment was replicated three times (3 pots). Each compound was typically tested on a weed panel which included Amaranth, Abutilon, Malva, Silybum, and Sinapis. The herbicides were applied at doses from 0 (control) to 5 mg/pot. The herbicides were applied on grown plants at stage 2-3 true leaves (post-emergence treatment). The plants were grown in the mesh house during the entire experiment. Plant development at 6, 12, 19, 26, and 32 days after application (DAA) was evaluated on a scale of 0 to 5, in which 0 represents dead plants, and 5 represents healthy plants similar or not different from Control. In the context of the invention, the herbicidal effect was expressed as a score calculated as an average of assessments of plants' vigor, height, and leaf color.

Amaranth = experiment: Post-emergence herbicidal effect on potted weeds; details: 2-3 true leaves, up to 5 mg/pot, scale 0 (dead plants) to 5 (healthy, as control)
Description: as §1

Lactuca = experiment: Post-emergence herbicidal effect on potted weeds; details: 2-3 true leaves, up to 5 mg/pot, scale 0 (dead plants) to 5 (healthy, as control)
Description: as §1

Trifolium = experiment: Post-emergence herbicidal effect on potted weeds; details: 2-3 true leaves, up to 5 mg/pot, scale 0 (dead plants) to 5 (healthy, as control)
Description: as §1

Silybum = experiment: Post-emergence herbicidal effect on potted weeds; details: 2-3 true leaves, up to 5 mg/pot, scale 0 (dead plants) to 5 (healthy, as control)
Description: as §1

Abutilon = experiment: Post-emergence herbicidal effect on potted weeds; details: 2-3 true leaves, up to 5 mg/pot, scale 0 (dead plants) to 5 (healthy, as control)
Description: as §1

Sinapis = experiment: Post-emergence herbicidal effect on potted weeds; details: 2-3 true leaves, up to 5 mg/pot, scale 0 (dead plants) to 5 (healthy, as control)
Description: as §1

Lettuce = experiment: Post-emergence herbicidal effect on potted weeds; details: 2-3 true leaves, up to 5 mg/pot, scale 0 (dead plants) to 5 (healthy, as control)
Description: as §1

Verbesina = experiment: Post-emergence herbicidal effect on potted weeds; details: 2-3 true leaves, up to 5 mg/pot, scale 0 (dead plants) to 5 (healthy, as control)
Description: as §1

Solanum = experiment: Post-emergence herbicidal effect on potted weeds; details: 2-3 true leaves, up to 5 mg/pot, scale 0 (dead plants) to 5 (healthy, as control)
Description: as §1

Row | Compound | minimal effective concentration (Lettuce seeds) | Average Herbicidal Effect, score (Malva) | Average Herbicidal Effect, score (Amaranth) | Average Herbicidal Effect, score (Lactuca) | Average Herbicidal Effect, score (Trifolium) | Average Herbicidal Effect, score (Silybum) | Average Herbicidal Effect, score (Abutilon) | Average Herbicidal Effect, score (Sinapis) | Average Herbicidal Effect, score (Lettuce) | Average Herbicidal Effect, score (Verbesina) | Average Herbicidal Effect, score (Solanum) | activity score (Lettuce seeds)
1 | CCOC(=O)CSc1ccc(F)c(Br)n1 [compound 7114, ethyl 2-[(6-bromo-5-fluoropyridin-2-yl)sulfanyl]acetate] | < 1 µM | 4 | 3 | 5 | 4 | 5 | 5 | 4 | – | – | – | –
2 | CCOC(=O)COc1ccc(F)c(Br)n1 [compound 7118, ethyl [(6-bromo-5-fluoropyridin-2-yl)oxy]acetate] | < 1 µM | 1 | 1 | 3 | 2 | 1 | 4 | 1 | 5 | 2 | 0 | –
3 | CCOCCOCCOC(=O)COc1ccc(F)c(Br)n1 [compound 7156, 2-(2-ethoxyethoxy)ethyl 2-[(6-bromo-5-fluoropyridin-2-yl)oxy]acetate] | – | 1 | 1 | 2 | 2 | 1 | 1 | 1 | 0 | 1 | 0 | 5.5 score
4 | O=C(O)COc1ccc(F)c(Br)n1 [compound 7157, [(6-bromo-5-fluoropyridin-2-yl)oxy]acetic acid] | 1 µM | 1 | 0 | 2 | 2 | 1 | 3 | 1 | 1 | 0 | 0 | –
